The values below come from ChEMBL document CHEMBL4017483, “Potent and selective oxytocin receptor agonists without disulfide bridges” (Bioorg Med Chem Lett, 2017).

For experiment [1], the species on record is Homo sapiens. Put plainly: Selectivity ratio of EC50 for human V1a receptor to EC50 for human OTR.
The target in a further experiment is Vasopressin V1a receptor (Homo sapiens, UniProt P37288). In words: Agonist activity at human V1a receptor expressed in CHO cells assessed as calcium mobilization measured after 30 mins by Fluo-4-AM dye based FLIPR assay. In kind it is cell-based.
Chain of Vasopressin V1a receptor (P37288 whole entry): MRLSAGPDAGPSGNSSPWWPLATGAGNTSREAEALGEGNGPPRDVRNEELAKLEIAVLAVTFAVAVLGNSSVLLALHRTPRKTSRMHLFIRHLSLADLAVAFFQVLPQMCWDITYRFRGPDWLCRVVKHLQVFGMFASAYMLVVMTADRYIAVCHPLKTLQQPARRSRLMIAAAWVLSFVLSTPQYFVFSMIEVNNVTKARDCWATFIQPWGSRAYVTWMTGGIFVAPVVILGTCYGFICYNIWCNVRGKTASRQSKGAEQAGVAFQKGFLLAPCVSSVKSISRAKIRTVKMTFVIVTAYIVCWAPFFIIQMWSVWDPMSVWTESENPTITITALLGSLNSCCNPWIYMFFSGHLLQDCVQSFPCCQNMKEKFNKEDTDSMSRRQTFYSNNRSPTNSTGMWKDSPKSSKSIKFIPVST
For experiment [2], the species on record is Homo sapiens. Put plainly: Selectivity ratio of EC50 for human V1b receptor to EC50 for human OTR.
The next experiment addresses T1, Oxytocin receptor (Homo sapiens, UniProt P30559).
T1 sequence (P30559 whole entry): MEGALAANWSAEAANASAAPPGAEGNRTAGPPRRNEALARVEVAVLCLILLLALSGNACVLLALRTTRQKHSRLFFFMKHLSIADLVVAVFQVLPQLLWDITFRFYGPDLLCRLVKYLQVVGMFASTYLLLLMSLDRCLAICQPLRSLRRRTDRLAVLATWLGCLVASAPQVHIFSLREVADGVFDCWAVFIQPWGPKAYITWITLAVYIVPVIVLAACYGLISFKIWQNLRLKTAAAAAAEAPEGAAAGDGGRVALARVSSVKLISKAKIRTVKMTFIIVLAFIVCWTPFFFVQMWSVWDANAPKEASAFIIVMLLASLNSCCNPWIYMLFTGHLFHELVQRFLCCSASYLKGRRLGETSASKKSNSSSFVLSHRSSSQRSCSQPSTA
In words: Agonist activity at human OTR expressed in CHO cells assessed as calcium mobilization measured after 30 mins by Fluo-4-AM dye based FLIPR assay. In kind it is functional, cell-based.

The target of a further experiment is T2, Vasopressin V1b receptor (Homo sapiens, UniProt P47901).
T2 sequence (P47901 whole entry): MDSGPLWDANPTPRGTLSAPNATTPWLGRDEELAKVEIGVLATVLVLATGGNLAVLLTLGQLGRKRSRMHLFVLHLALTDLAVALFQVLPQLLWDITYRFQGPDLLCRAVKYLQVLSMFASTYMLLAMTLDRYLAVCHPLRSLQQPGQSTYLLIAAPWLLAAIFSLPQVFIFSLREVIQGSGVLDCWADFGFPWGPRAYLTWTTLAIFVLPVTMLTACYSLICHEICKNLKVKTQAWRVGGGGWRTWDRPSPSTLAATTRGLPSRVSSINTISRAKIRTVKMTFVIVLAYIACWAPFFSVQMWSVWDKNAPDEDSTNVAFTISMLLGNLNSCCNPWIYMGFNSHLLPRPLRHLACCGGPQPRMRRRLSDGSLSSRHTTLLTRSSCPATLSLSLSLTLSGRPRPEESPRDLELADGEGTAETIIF
Put plainly: Agonist activity at human V1b receptor expressed in CHO cells assessed as calcium mobilization measured after 30 mins by Fluo-4-AM dye based FLIPR assay. In kind it is cell-based.

Bridge positions count the residues as written; N and C are the ends. Square brackets hold non-standard residues; d marks the D form. Peptide text beside a SMILES is read from it. Mpa = O=C(O)CCS

`CC[C@H](C)[C@@H]1NC(=O)[C@H](Cc2ccc(O)cc2)NC(=O)CCSSC[C@@H](C(=O)N2CCC[C@H]2C(=O)N[C@@H](CC(C)C)C(=O)NCC(N)=O)NC(=O)[C@H](CCC(=O)O)NC(=O)[C@H](CCC(N)=O)NC1=O` ([Mpa]YIQECPLG-NH2; disulfide 1-6): the Ratio EC50 in the experiment filed under Homo sapiens [1] and in the experiment listed under Homo sapiens [2] was above 1 in each case. Also, the concentration for a half-maximal effect (EC50) on Vasopressin V1a receptor was above 100 nM; on Oxytocin receptor, 89 nM; on Vasopressin V1b receptor it was above 100 nM.

As for `CC[C@H](C)[C@@H]1NC(=O)[C@H](Cc2ccc(O)cc2)NC(=O)CCSSC[C@@H](C(=O)N[C@@H](C)C(=O)N[C@@H](CC(C)C)C(=O)NCC(N)=O)NC(=O)[C@H](CC(N)=O)NC(=O)[C@H](CCC(N)=O)NC1=O` ([Mpa]YIQNCALG-NH2; disulfide 1-6), the Ratio EC50 in the experiment listed under Homo sapiens [1] and in the experiment listed under Homo sapiens [2] was above 1000 throughout. Further, the concentration giving a half-maximal response (EC50) was above 100 nM at Vasopressin V1a receptor, 0.07 nM at Oxytocin receptor and above 100 nM at Vasopressin V1b receptor.

For `CC[C@H](C)[C@@H]1NC(=O)[C@H](Cc2ccc(O)cc2)NC(=O)CCSSC[C@@H](C(=O)N[C@@H](CCC(=O)O)C(=O)N[C@@H](CC(C)C)C(=O)NCC(N)=O)NC(=O)[C@H](CC(N)=O)NC(=O)[C@H](CCC(N)=O)NC1=O` ([Mpa]YIQNCELG-NH2; disulfide 1-6), the Ratio EC50 in the experiment listed under Homo sapiens [1] and in the experiment filed under Homo sapiens [2] was above 100 in each case. Moreover, the 50% effective concentration (EC50) on Vasopressin V1a receptor was above 100 nM; at Oxytocin receptor, 0.35 nM; on Vasopressin V1b receptor, above 100 nM.

As for `CC[C@H](C)[C@@H]1NC(=O)[C@H](Cc2ccc(O)cc2)NC(=O)CCSSC[C@@H](C(=O)N[C@@H](Cc2ccccc2)C(=O)N[C@@H](CC(C)C)C(=O)NCC(N)=O)NC(=O)[C@H](CC(N)=O)NC(=O)[C@H](CCC(N)=O)NC1=O` ([Mpa]YIQNCFLG-NH2; disulfide 1-6), the Ratio EC50 in the experiment filed under Homo sapiens [1] and in the experiment listed under Homo sapiens [2] was above 100 throughout. The values for the EC50 at Vasopressin V1a receptor, on Oxytocin receptor and at Vasopressin V1b receptor were above 100 nM, 0.12 nM and above 100 nM, respectively.

For `CC[C@H](C)[C@@H]1NC(=O)[C@H](Cc2ccc(O)cc2)NC(=O)CCSSC[C@@H](C(=O)NCC(=O)N[C@@H](CC(C)C)C(=O)NCC(N)=O)NC(=O)[C@H](CC(N)=O)NC(=O)[C@H](CCC(N)=O)NC1=O` ([Mpa]YIQNCGLG-NH2; disulfide 1-6), the Ratio EC50 in the experiment filed under Homo sapiens [1] and in the experiment listed under Homo sapiens [2] was above 1000 each time. The EC50 on Vasopressin V1a receptor is above 100 nM; at Oxytocin receptor, 0.013 nM; on Vasopressin V1b receptor, above 100 nM.

`CC[C@H](C)[C@@H]1NC(=O)[C@H](Cc2ccc(O)cc2)NC(=O)CCSSC[C@@H](C(=O)N[C@@H](CC(C)C)C(=O)N[C@@H](CC(C)C)C(=O)NCC(N)=O)NC(=O)[C@H](CC(N)=O)NC(=O)[C@H](CCC(N)=O)NC1=O` ([Mpa]YIQNCLLG-NH2; disulfide 1-6): the Ratio EC50 in the experiment filed under Homo sapiens [1] and in the experiment listed under Homo sapiens [2] was above 10 throughout. In addition, the half-maximal effective concentration (EC50) on Vasopressin V1a receptor is above 100 nM; on Oxytocin receptor, 3.4 nM; on Vasopressin V1b receptor, above 100 nM.

Regarding `CC[C@H](C)[C@@H]1NC(=O)[C@H](Cc2ccc(O)cc2)NC(=O)CCSSC[C@@H](C(=O)N2CCC[C@H]2C(=O)N[C@@H](C)C(=O)NCC(N)=O)NC(=O)[C@H](CC(N)=O)NC(=O)[C@H](CCC(N)=O)NC1=O` ([Mpa]YIQNCPAG-NH2; disulfide 1-6), the results for the Ratio EC50 in the experiment filed under Homo sapiens [1] and in the experiment listed under Homo sapiens [2] were 200 and 8.1, respectively. Moreover, the EC50 came out at 4.2 nM at Vasopressin V1a receptor, 0.021 nM at Oxytocin receptor and 0.17 nM at Vasopressin V1b receptor.

Regarding `CC[C@H](C)[C@@H]1NC(=O)[C@H](Cc2ccc(O)cc2)NC(=O)CCSSC[C@@H](C(=O)N2CCC[C@H]2C(=O)N[C@@H](CCC(=O)O)C(=O)NCC(N)=O)NC(=O)[C@H](CC(N)=O)NC(=O)[C@H](CCC(N)=O)NC1=O` ([Mpa]YIQNCPEG-NH2; disulfide 1-6), the Ratio EC50 in the experiment listed under Homo sapiens [1] and in the experiment filed under Homo sapiens [2] was above 100 each time. Moreover, the EC50 was above 100 nM at Vasopressin V1a receptor, 0.25 nM at Oxytocin receptor and above 100 nM on Vasopressin V1b receptor.

For `CC[C@H](C)[C@@H]1NC(=O)[C@H](Cc2ccc(O)cc2)NC(=O)CCSSC[C@@H](C(=O)N2CCC[C@H]2C(=O)N[C@@H](Cc2ccccc2)C(=O)NCC(N)=O)NC(=O)[C@H](CC(N)=O)NC(=O)[C@H](CCC(N)=O)NC1=O` ([Mpa]YIQNCPFG-NH2; disulfide 1-6), the Ratio EC50 in the experiment listed under Homo sapiens [1] was above 1000; in the experiment filed under Homo sapiens [2], 44. The 50% effective concentration (EC50) was above 100 nM at Vasopressin V1a receptor, 0.054 nM at Oxytocin receptor and 2.4 nM on Vasopressin V1b receptor.

`CC[C@H](C)[C@@H]1NC(=O)[C@H](Cc2ccc(O)cc2)NC(=O)CCSSC[C@@H](C(=O)N2CCC[C@H]2C(=O)N[C@@H](CC(C)C)C(=O)N[C@@H](C)C(N)=O)NC(=O)[C@H](CC(N)=O)NC(=O)[C@H](CCC(N)=O)NC1=O` ([Mpa]YIQNCPLA-NH2; disulfide 1-6): the Ratio EC50 in the experiment listed under Homo sapiens [1] and in the experiment listed under Homo sapiens [2] was above 10 each time. In addition, the concentration for a half-maximal effect (EC50) on Vasopressin V1a receptor was above 100 nM; at Oxytocin receptor, 1.4 nM; on Vasopressin V1b receptor it was above 100 nM.

Regarding `CC[C@H](C)[C@@H]1NC(=O)[C@H](Cc2ccc(O)cc2)NC(=O)CCSSC[C@@H](C(=O)N2CCC[C@H]2C(=O)N[C@@H](CC(C)C)C(=O)N[C@@H](CCC(=O)O)C(N)=O)NC(=O)[C@H](CC(N)=O)NC(=O)[C@H](CCC(N)=O)NC1=O` ([Mpa]YIQNCPLE-NH2; disulfide 1-6), the Ratio EC50 in the experiment filed under Homo sapiens [1] and in the experiment filed under Homo sapiens [2] was above 10 each time. The figures for the EC50 at Vasopressin V1a receptor, at Oxytocin receptor and at Vasopressin V1b receptor were above 100 nM, 9.5 nM and above 100 nM, respectively.

With `CC[C@H](C)[C@@H]1NC(=O)[C@H](Cc2ccc(O)cc2)NC(=O)CCSSC[C@@H](C(=O)N2CCC[C@H]2C(=O)N[C@@H](CC(C)C)C(=O)N[C@@H](Cc2ccccc2)C(N)=O)NC(=O)[C@H](CC(N)=O)NC(=O)[C@H](CCC(N)=O)NC1=O` ([Mpa]YIQNCPLF-NH2; disulfide 1-6), the Ratio EC50 in the experiment listed under Homo sapiens [1] and in the experiment filed under Homo sapiens [2] was above 10 throughout. The EC50 is above 100 nM at Vasopressin V1a receptor, 1.6 nM at Oxytocin receptor and above 100 nM at Vasopressin V1b receptor.

`CC[C@H](C)[C@@H]1NC(=O)[C@H](Cc2ccc(O)cc2)NC(=O)CCSSC[C@@H](C(=O)N2CCC[C@H]2C(=O)N[C@@H](CC(C)C)C(=O)N[C@@H](CC(C)C)C(N)=O)NC(=O)[C@H](CC(N)=O)NC(=O)[C@H](CCC(N)=O)NC1=O` ([Mpa]YIQNCPLL-NH2; disulfide 1-6): the Ratio EC50 in the experiment listed under Homo sapiens [1] and in the experiment listed under Homo sapiens [2] was above 10 throughout. Moreover, the results for the concentration for a half-maximal effect (EC50) at Vasopressin V1a receptor, at Oxytocin receptor and at Vasopressin V1b receptor were above 100 nM, 1.6 nM and above 100 nM, respectively.

As for `CC[C@H](C)[C@@H]1NC(=O)[C@H](Cc2ccc(O)cc2)NC(=O)CCSSC[C@@H](C(=O)N2CCC[C@H]2C(=O)N[C@@H](CC(C)C)C(=O)N[C@@H](CCCNC(=N)N)C(N)=O)NC(=O)[C@H](CC(N)=O)NC(=O)[C@H](CCC(N)=O)NC1=O` ([Mpa]YIQNCPLR-NH2; disulfide 1-6), the Ratio EC50 in the experiment filed under Homo sapiens [1] and in the experiment filed under Homo sapiens [2] was above 100 each time. The results for the EC50 at Vasopressin V1a receptor, on Oxytocin receptor and at Vasopressin V1b receptor were above 100 nM, 0.53 nM and above 100 nM, respectively.

`CC[C@H](C)[C@@H]1NC(=O)[C@H](Cc2ccc(O)cc2)NC(=O)CCSSC[C@@H](C(=O)N2CCC[C@H]2C(=O)N[C@@H](CCCNC(=N)N)C(=O)NCC(N)=O)NC(=O)[C@H](CC(N)=O)NC(=O)[C@H](CCC(N)=O)NC1=O` ([Mpa]YIQNCPRG-NH2; disulfide 1-6): the Ratio EC50 is 4 in the experiment listed under Homo sapiens [1] and 1.1 in the experiment listed under Homo sapiens [2]. The 50% effective concentration (EC50) came to 0.12 nM at Vasopressin V1a receptor, 0.03 nM on Oxytocin receptor and 0.034 nM on Vasopressin V1b receptor.

As for `CC[C@H](C)[C@@H]1NC(=O)[C@H](Cc2ccc(O)cc2)NC(=O)CCSSC[C@@H](C(=O)N2CCC[C@H]2C(=O)N[C@@H](CO)C(=O)NCC(N)=O)NC(=O)[C@H](CC(N)=O)NC(=O)[C@H](CCC(N)=O)NC1=O` ([Mpa]YIQNCPSG-NH2; disulfide 1-6), the Ratio EC50 in the experiment filed under Homo sapiens [1] was above 1000; in the experiment filed under Homo sapiens [2], 12. Besides, the EC50 on Vasopressin V1a receptor is above 100 nM; on Oxytocin receptor, 0.056 nM; at Vasopressin V1b receptor, 0.65 nM.

For the compound `CC[C@H](C)[C@@H]1NC(=O)[C@H](Cc2ccc(O)cc2)NC(=O)CCSSC[C@@H](C(=O)N2CCC[C@H]2C(=O)N[C@H](C(=O)NCC(N)=O)C(C)C)NC(=O)[C@H](CC(N)=O)NC(=O)[C@H](CCC(N)=O)NC1=O` ([Mpa]YIQNCPVG-NH2; disulfide 1-6), the values for the Ratio EC50 in the experiment listed under Homo sapiens [1] and in the experiment listed under Homo sapiens [2] were 360 and 93, respectively. Further, the EC50 at Vasopressin V1a receptor is 5.1 nM; on Oxytocin receptor, 0.014 nM; on Vasopressin V1b receptor it was 1.3 nM.
